Reference: US20080139607A1, “New Compounds” (ASTRAZENECA AB, priority 2006, published 2008)

target: Recombinant human PAI-1 (Homo sapiens, UniProt P05121); assay: Plasma clot lysis assay for testing of PAI-1 inhibitors (clot lysis in platelet-poor plasma); type: biochemical; conditions: concentration at which clot lysis time is halved (pIC50=-log IC50); platelet-poor plasma 50%, PAI-1 10-13 ng/mL, t-PA 34 ng/mL, 37° C.
Protocol: Plasma Clot Lysis Assay for Testing of PAI-1 Inhibitors
CaCl2, p.a. Stock solution 0.1 M in water.
PAI-1 inhibitors dissolved in 100% DMSO.
Experimental Procedures—Clot Lysis in Platelet-Poor Plasma
Blood from healthy fat-fasting volunteers was collected into 0.13 M trisodium citrate, 9 parts blood to 1 part anticoagulant. The tubes were centrifuged at 2000×g, 20 min, at RT. The supernatant, ie, the platelet poor plasma was pooled, aliquoted and frozen at −85° C. until used. At the day of experiment the plasma was thawed in a water bath and temperated to 37° C. All other constituents, except t-PA, were prewarmed to 37° C. To each well on a microtiter plate, 25 μL CaCl2, 25 μL PAI-1 or 25 μL PAI-1 vehicle, 20 μL saline and 5 μL drug or 5 μL vehicle (100% DMSO) were added. Plasma was mixed with cold t-PA solution in the relation 4 parts plasma with 1 part t-PA, just before adding 125 μL of this mixture to each well. The final concentration was 12.5 mM for CaCl2, 10-13 ng/mL for PAI-1, 34 ng/mL for t-PA, and the compounds were tested at a final concentration range 0.1 nM to 0.25 mM. The final plasma concentration was 50%, as a result of the different additives. The plate, covered with a plastic lid, was placed in a Microplate reader (Molecular Devices, US) and gently shaken. The change in turbidity was immediately monitored as a change in absorbance at 405 nm at 37° C. Data points were collected at intervals of 2 min, during a period of 10 h. After finished reading, the absorbance data were transformed into files containing the time and absorbance values for each well. The clot longevity, ie, the time the clot exists, was determined as the time between clot formation, ie, positive Vmax, and clot lysis, ie, negative Vmax. The effect of the drugs, ie, shortening of the longevity for the clot, was expressed as the concentration at which a halving of the clot lysis time was reached, the IC50 (pIC50=−log IC50). Control clot lysis time, set to 100%, was determined in the presence of PAI-1, and the maximal effect, ie, the shortest lysis time that can be reached under defined conditions in this system, in the absence of PAI-1 was set to 0%.
Compounds having a pIC50 higher than 4 were considered as being active.

Chain of Recombinant human PAI-1 (P05121 24-402): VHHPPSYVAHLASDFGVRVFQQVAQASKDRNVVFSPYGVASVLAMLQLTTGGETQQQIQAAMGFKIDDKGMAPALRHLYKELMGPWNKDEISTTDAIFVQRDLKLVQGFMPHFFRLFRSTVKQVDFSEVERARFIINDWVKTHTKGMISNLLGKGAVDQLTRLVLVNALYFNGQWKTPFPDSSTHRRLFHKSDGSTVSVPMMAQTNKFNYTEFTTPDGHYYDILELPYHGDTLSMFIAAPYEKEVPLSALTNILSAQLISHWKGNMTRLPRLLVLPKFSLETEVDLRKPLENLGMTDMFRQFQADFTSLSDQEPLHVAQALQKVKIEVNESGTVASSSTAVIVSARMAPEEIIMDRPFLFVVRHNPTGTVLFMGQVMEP

In order of rising IC50:
1. CCCCCCCc1cc(=O)n2c(c1-c1cccc(C(F)(F)F)c1)SC[C@H]2C(=O)NS(=O)(=O)c1ccccc1 [Example 8, (3R)—N-[7-Heptyl-5-oxo-8-(3-trifluoromethyl-phenyl)-2,3-dihydro-5H-thiazolo[3,2-a]pyridine-3-carbonyl]-benzenesulfonamide]  2.51 µM
2. CCCCCCCCc1cc(=O)n2c(c1-c1cccc(C(F)(F)F)c1)SC[C@H]2C(=O)O [Example 18, (3R)-7-octyl-5-oxo-8-[3-(trifluoromethyl)phenyl]-2,3-dihydro-5H-[1,3]thiazolo[3,2-a]pyridine-3-carboxylic acid]  3.98 µM
3. CCCCCCCc1c(-c2cccc(C(F)(F)F)c2)c2n(c(=O)c1[N+](=O)[O-])[C@H](C(=O)O)CS2 [Example 10, (3R)-7-Heptyl-6-nitro-5-oxo-8-(3-trifluoromethyl-phenyl)-2,3-dihydro-5H-thiazolo[3,2-a]pyridine-3-carboxylic acid]  3.98 µM
4. CCCCCCCc1cc(=O)n2c(c1-c1ccc(F)c(F)c1)S[C@H](C)[C@H]2C(=O)O [Example 25, (2R,3R)-8-(3,4-difluorophenyl)-7-heptyl-2-methyl-5-oxo-2,3-dihydro-5H-[1,3]thiazolo[3,2-a]pyridine-3-carboxylic acid]  3.98 µM
5. CCCCCCCc1cc(=O)n2c(c1-c1ccc(F)c(F)c1)S[C@H](c1ccccc1)[C@H]2C(=O)O [Example 24, (2R,3R)-8-(3,4-difluorophenyl)-7-heptyl-5-oxo-2-phenyl-2,3-dihydro-5H-[1,3]thiazolo[3,2-a]pyridine-3-carboxylic acid]  5.01 µM
6. CCCCCCCc1cc(=O)n2c(c1-c1cccs1)SC[C@H]2C(=O)O [Example 19, (3R)-7-heptyl-5-oxo-8-(2-thienyl)-2,3-dihydro-5H-[1,3]thiazolo[3,2-a]pyridine-3-carboxylic acid]  10 µM
7. CCCCCCCc1cc(=O)n2c(c1-c1ccc(F)c(F)c1)SC[C@@H]2C(=O)O [Example 11, (3S)-8-(3,4-Difluoro-phenyl)-7-heptyl-5-oxo-2,3-dihydro-5H-thiazolo[3,2-a]pyridine-3-carboxylic acid]  10 µM
8. CCCCCCCc1cc(=O)n2c(C(=O)O)csc2c1-c1ccc(F)c(F)c1 [Example 23, 8-(3,4-difluorophenyl)-7-heptyl-5-oxo-5H-[1,3]thiazolo[3,2-a]pyridine-3-carboxylic acid]  10 µM
9. CCCCCCCc1cc(=O)n2c(c1-c1ccc(F)c(F)c1)SC[C@H]2C(=O)NS(C)(=O)=O [Example 2, (3R)—N-[8-(3,4-Difluoro-phenyl)-7-heptyl-5-oxo-2,3-dihydro-5H-thiazolo[3,2-a]pyridine-3-carbonyl]-methanesulfonamide]  10 µM
10. CCCCCCCc1cc(=O)n2c(c1-c1ccc(F)c(F)c1)S[C@H](OC)[C@H]2C(=O)O [Example 22, (2S,3R)-8-(3,4-difluorophenyl)-7-heptyl-2-methoxy-5-oxo-2,3-dihydro-5H-[1,3]thiazolo[3,2-a]pyridine-3-carboxylic acid]  10 µM
11. CCCCCCc1c(-c2cccc(C(F)(F)F)c2)c2n(c(=O)c1N)[C@H](C(=O)O)CS2 [Example 14, (3R)-6-Amino-7-hexyl-5-oxo-8-(3-trifluoromethyl-phenyl)-2,3-dihydro-5H-thiazolo[3,2-a]pyridine-3-carboxylic acid]  12.6 µM
12. CCCCCCCc1cc(=O)n([C@@H](C)C(=O)O)cc1-c1ccc(F)c(F)c1 [Example 3, (2S)-2-[5-(3,4-Difluoro-phenyl)-4-heptyl-2-oxo-2H-pyridin-1-yl]-propionic acid]  12.6 µM
13. O=C(O)[C@@H]1CSc2c(-c3ccccc3)c(CCCOc3ccc(Cl)cc3Cl)cc(=O)n21 [Example 21, (3R)-7-[3-(2,4-dichloro-phenoxy)-propyl]-5-oxo-8-phenyl-2,3-dihydro-51H-thiazolo[3,2-a]pyridine-3-carboxylic acid]  12.6 µM
14. CCCCCCCc1cc(=O)n2c(c1-c1c[nH]c3ccccc13)SC[C@H]2C(=O)O [Example 20, (3R)-7-heptyl-8-(1H-indol-3-yl)-5-oxo-2,3-dihydro-5H-[1,3]thiazolo[3,2-a]pyridine-3-carboxylic acid]  12.6 µM
15. CC(C)CCc1c(-c2cccc(C(F)(F)F)c2)c2n(c(=O)c1[N+](=O)[O-])[C@H](C(=O)O)CS2 [Example 13, (3R)-7-(3-methylbutyl)-6-nitro-5-oxo-8-(3-trifluoromethyl-phenyl)-2,3-dihydro-5H-thiazolo[3,2-a]pyridine-3-carboxylic acid]  12.6 µM
16. CCCCCCc1c(-c2cccc(C(F)(F)F)c2)c2n(c(=O)c1[N+](=O)[O-])[C@H](C(=O)O)CS2 [Example 12, (3R)-7-Hexyl-6-nitro-5-oxo-8-(3-trifluoromethyl-phenyl)-2,3-dihydro-5H-thiazolo[3,2-a]pyridine-3-carboxylic acid]  12.6 µM
17. CCCCCCCc1cc(=O)n2c(c1-c1cccc(C(F)(F)F)c1)SC[C@H]2C(=O)O [Example 7, (3R)-7-Heptyl-5-oxo-8-(3-trifluoromethyl-phenyl)-2,3-dihydro-5H-thiazolo[3,2-a]pyridine-3-carboxylic acid]  12.6 µM
18. CCCCCCCc1cc(=O)n2c(c1-c1ccc(F)c(F)c1)SC[C@H]2C(=O)O [Example 1, (3R)-8-(3,4-Difluoro-phenyl)-7-heptyl-5-oxo-2,3-dihydro-5H-thiazolo[3,2-a]pyridine-3-carboxylic acid]  15.8 µM
19. CCCCCCCc1c(-c2ccc(F)c(F)c2)c2n(c(=O)c1C(=O)O)[C@H](C(=O)OC)CS2 [Example 6, (3R)-8-(3,4-Difluoro-phenyl)-7-heptyl-5-oxo-2,3-dihydro-5H-thiazolo[3,2-a]pyridine-3,6-dicarboxylic acid 3-methyl ester]  20 µM
20. CCCCCCCc1c(-c2ccc(F)c(F)c2)c2n(c(=O)c1[N+](=O)[O-])[C@H](C(=O)O)CS2 [Example 17, (3R)-8-(3,4-Difluoro-phenyl)-7-heptyl-6-nitro-5-oxo-2,3-dihydro-5H-thiazolo[3,2-a]pyridine-3-carboxylic acid]  20 µM
21. CCCCCCCc1cc(=O)n2c(c1-c1ccc(F)c(F)c1)SC[C@H]2c1nnn[nH]1 [Example 5, (3R)-8-(3,4-Difluoro-phenyl)-7-heptyl-3-(1H-tetrazol-5-yl)-2,3-dihydro-thiazolo[3,2-a]pyridin-5-one]  25.1 µM
22. CCCCc1c(-c2cccc(C(F)(F)F)c2)c2n(c(=O)c1[N+](=O)[O-])[C@H](C(=O)O)CS2 [Example 15, (3R)-7-Butyl-6-nitro-5-oxo-8-(3-trifluoromethyl-phenyl)-2,3-dihydro-5H-thiazolo[3,2-a]pyridine-3-carboxylic acid]  39.8 µM
23. CCCCc1cc(=O)n2c(c1-c1cccc(C(F)(F)F)c1)SC[C@H]2C(=O)O [Example 9, (3R)-7-Butyl-5-oxo-8-(3-trifluoromethyl-phenyl)-2,3-dihydro-5H-thiazolo[3,2-a]pyridine-3-carboxylic acid]  39.8 µM
24. CCCCCCCc1cc(=O)n2c(c1-c1ccc(F)c(F)c1)SC[C@@H]2C(N)=O [Example 4, (3S)-8-(3,4-Difluoro-phenyl)-7-heptyl-5-oxo-2,3-dihydro-5H-thiazolo[3,2-a]pyridine-3-carboxylic acid amide]  50.1 µM
25. CC(C)CCc1c(-c2cccc(C(F)(F)F)c2)c2n(c(=O)c1N)[C@H](C(=O)O)CS2 [Example 16, (3R)-6-Amino-7-(3-methyl-butyl)-5-oxo-8-(3-trifluoromethyl-phenyl)-2,3-dihydro-5H-thiazolo[3,2-a]pyridine-3-carboxylic acid]  79.4 µM
